The record followed here is patent US10626094B2 (La Jolla Institute of Allergy & Immunology, priority 2014, dated 2020).

The term IC50 denotes the point on the concentration scale where inhibition reaches its midpoint.

For one assay, the target named is LMPTP-A (Low Molecular Weight Protein Tyrosine Phosphatase-A) enzyme (Homo sapiens (Human), UniProt P24666). In words: LMPTP primary screening / LMPTP (OMFP) enzyme inhibition assay, fluorescence intensity. In kind it is biochemical. As to conditions: IC50 (nM), LMPTP-A, OMFP substrate, method of Example 2. How it is done: This assay attempts to identify inhibitors of the LMPTP-A (Low Molecular Weight Protein Tyrosine Phosphatase-A) enzyme. It is run in 1536-well format and is measured via fluorescence intensity.
Sequence of LMPTP-A (Low Molecular Weight Protein Tyrosine Phosphatase-A) enzyme (P24666 whole entry): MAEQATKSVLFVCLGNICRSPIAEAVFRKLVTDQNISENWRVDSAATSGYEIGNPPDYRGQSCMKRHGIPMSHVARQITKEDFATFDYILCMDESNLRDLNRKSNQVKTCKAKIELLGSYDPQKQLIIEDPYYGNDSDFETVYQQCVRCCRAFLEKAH
A listing of materials is provided: • Item, source, catalog no. • LMPTP-A Enzyme Stock Solution (4.22 mg/ml or 206.8 μM), SBMRI Protein Facility, • N/A • OMFP, Sigma, M2629-100MG • Bis-Tris pH 6.0, Fisher Sci, BP301-100 • Triton-X 100, Sigma, T9284 • DTT, Sigma, D9779 • Mol. Grade Water, Mediatech, Inc., 46-000-CM • 1536-well black High base opaque bottom plate, Nexus Biosystems, 00019120
Final assay conditions are: • 0.625 nM LMPTP-A Enzyme • 400 μM OMFP • 50 mM Bis-Tris pH 6.0 • 1 mM DTT • 0.01% Triton-X 100 • 20 μM test compound • 3% DMSO (2% from substrate and 1% from compounds) • 6 μL reaction volume • 50 minutes incubation at room temp
Assay Procedure • 1. Prepare Reagents as described in section F. Recipe. • 2. Using LabCyte Echo, transfer 60 nL from 2 mM test compound source plate into assay plate Col. 5-48 (final concentration of test compounds is 20 μM). 60 nL of DMSO should be transferred to col. 1-4 for positive and negative control wells. • 3. Spin plates at 1000 rpm for 1 minute in centrifuge. • 4. […] Using the Bioraptr, add 3 μL/well of enzyme solution to col. 3-48. • 6. Using the Bioraptr, add 3 μL/well of substrate solution to col. 1-48. • 7. Spin plates at 1000 rpm for 1 minute in centrifuge. • 8. Incubate plates in the dark at room temperature for 50 minutes. • 9. Read plates on PerkinElmer Viewlux using a FI protocol.
Turning to `COc1ccc(-c2cc(Nc3ccccn3)c3ccccc3n2)cc1` [Compound G63, [2-(4-Methoxy-phenyl)-quinolin-4-yl]-pyridin-2-yl-amine], the IC50 fell in the range of 801 to 5000 nM.

The assay is the same for the next values; noted with them: LMPTP-A, OMFP substrate, method of Example 2; read-out: IC50.
Take `COc1ccc(-c2cc(Nc3ccc(OC(C)C)cc3)c3ccccc3n2)cc1` [Compound G44, [2-(4-methoxyphenyl)(4-quinolyl)][4-(methylethoxy)phenyl]amine]: the IC50 was in the range of 801 to 5000 nM.
Take `FC(F)(F)c1cc(-c2cc(Nc3cccc(CC4CCN(Cc5ccccc5)CC4)c3)c3ccccc3n2)cc(C(F)(F)F)c1` [Compound I50, {2-[3,5-bis(trifluoromethyl)phenyl](4-quinolyl)}(3-{[1-benzyl(4-piperidyl)]methyl}phenyl)amine]: the half-maximal inhibitory concentration (IC50) was greater than 5000 nM.
Turning to `CCN1CCN(Cc2ccc(Nc3cc(-c4ccc(C(N)=O)cc4)nc4ccccc34)cc2)CC1` [Compound I215, 4-[4-({4-[(4-ethylpiperazinyl)methyl]phenyl}amino)-2-quinolyl]benzamide], the concentration for half-maximal inhibition (IC50) is greater than 5000 nM.
For `NC(=O)c1cccc(-c2cc(NCCCN3CCCCC3)c3ccccc3n2)c1` [Compound I123], the half-inhibitory concentration (IC50) lay within 801 to 5000 nM.
Still for that read-out and setting: under `CN(C)CCc1ccc(Nc2cc(-c3ccc(C(N)=O)cc3)nc3ccccc23)cc1` [Compound I217, 4-[4-({4-[2-(dimethylamino)ethyl]phenyl}amino)-2-quinolyl]benzamide] stands greater than 5000 nM; under `O=C(NCCN1CCCCC1)c1ccc(-c2cc(NCCCN3CCCCC3)c3ccccc3n2)cc1` [Compound I191], 200 to 800 nM; under `Fc1cccnc1-c1cc(NCCCN2CCCCC2)c2ccccc2n1` [Compound I94], 801 to 5000 nM.
With “(3-piperidylpropyl)[2-(3,4,5-trifluorophenyl)(4-quinolyl)]amine [Compound I127]”, the IC50 was 801 to 5000 nM.
As for `COc1ccc(-c2cc(NCCCN3CCCCC3)c3ccccc3n2)cc1OC` [Compound I108], the IC50 was 801 to 5000 nM.
`O=S(=O)(c1ccc(-c2cc(NCCCN3CCCCC3)c3ccccc3n2)cc1)N1CCOCC1` [Compound I236]: the IC50 was in the range of 200 to 800 nM.
Consider `NC(=O)c1ccc(-c2cc(NCCCN3CCCCCC3)c3ccccc3n2)cc1` [Compound I219, 4-{4-[(3-azaperhydroepinylpropyl)amino]-2-quinolyl}benzamide], for which the IC50 was greater than 5000 nM.
In the case of `Cc1cc(-c2cc(NCCCN3CCCCC3)c3ccccc3n2)cnc1C#N` [Compound I83], the IC50 was 801 to 5000 nM.
For `FC(F)(F)c1cc(-c2cc(Nc3cccc(CC4CCNCC4)c3)c3ccccc3n2)cc(C(F)(F)F)c1` [Compound I52, {2-[3,5-bis(trifluoromethyl)phenyl](4-quinolyl)}[3-(4-piperidylmethyl)phenyl]amine], the half-maximal inhibitory concentration (IC50) was greater than 5000 nM.
On the same count and under the same terms, under `FC(F)(F)c1ccc(Nc2cc(NCCCN3CCCCC3)c3ccccc3n2)c(C(F)(F)F)c1` [Compound I75] stands greater than 5000 nM; under `c1c[nH]c(-c2cc(NCCCN3CCCCC3)c3ccccc3n2)c1` [Compound G22, (3-Piperidin-1-yl-propyl)-[2-(1H-pyrrol-2-yl)-quinolin-4-yl]-amine], 801 to 5000 nM; under `CS(=O)(=O)c1ccc(-c2cc(NCCCN3CCCCC3)c3ccccc3n2)cc1` [Compound I132], 801 to 5000 nM.
Turning to `FC(F)(F)c1ncccc1-c1cc(NCCCN2CCCCC2)c2ccccc2n1` [Compound I153], the IC50 fell in the range of 801 to 5000 nM.
Regarding `COc1ccc(-c2cc(Nc3cccc(CN4CCN(C)CC4)c3)c3ccccc3n2)cc1` [Compound G60, [2-(4-methoxyphenyl)(4-quinolyl)]{3-[(4-methylpiperazinyl)methyl]phenyl}amine], the IC50 was 801 to 5000 nM.
Still for that read-out and setting: next, `CN(C)Cc1cc(CO)cc(Nc2cc(-c3cccc(Cl)c3)nc3ccccc23)c1` [Compound I45, (5-[(dimethylamino)methyl]-3-{[2-(3-chlorophenyl)(4-quinolyl)]amino}phenyl)methan-1-ol]: 801 to 5000 nM; `COc1ccc(-c2cc(Nc3cccc(CC#N)c3)c3ccccc3n2)cc1` [Compound I36, 2-(3-{[2-(4-methoxyphenyl)-4-quinolyl]amino}phenyl)ethanenitrile]: 801 to 5000 nM.
As for `Cc1noc(C)c1-c1cc(NCCCN2CCCCC2)c2ccccc2n1` [Compound I112], the IC50 was greater than 5000 nM.
Turning to `Clc1cccc(Nc2cc(NCCCN3CCCCC3)c3ccccc3n2)c1` [Compound I76], the IC50 is greater than 5000 nM.
Still for that read-out and setting: under `COc1ccc(-c2cc(NCCCN3CCCCC3)c3cc(OC)ccc3n2)cc1` [Compound G25, [6-Methoxy-2-(4-methoxy-phenyl)-quinolin-4-yl]-(3-piperidin-1-yl-propyl)-amine] stands greater than 5000 nM; under `COc1ccc(-c2cc(Nc3ccc(F)c(Cl)c3)c3ccccc3n2)cc1` [Compound G49, (3-chloro-4-fluorophenyl)[2-(4-methoxyphenyl)(4-quinolyl)]amine], 801 to 5000 nM.
In the case of `O=S(=O)(c1ccc(-c2cc(NCCCN3CCCCC3)c3ccccc3n2)cc1)N1CCSCC1` [Compound I235, 4-[(4-{4-[(3-piperidylpropyl)amino]-2-quinolyl}phenyl)sulfonyl]-1,4-thiazaperhydroine], the IC50 was 200 to 800 nM.
`O=C(NCC1CCCO1)c1ccc(-c2cc(NCCCN3CCCCC3)c3ccccc3n2)cc1` (stereo not drawn) [Compound I64]: the IC50 is 801 to 5000 nM.
Consider `CNC(=O)c1ccc(-c2cc(NCCCN3CCCCC3)c3ccccc3n2)cc1Cl` [Compound I251], for which the IC50 was in the range of 200 to 800 nM.
Consider `COc1ccc(-c2cc(NCCC3CCCN3C)c3ccccc3n2)cc1` (stereo not drawn) [Compound I24, [2-(4-methoxyphenyl)(4-quinolyl)][2-(1-methylpyrrolidin-2-yl)ethyl]amine], for which the IC50 lay in the range of 801 to 5000 nM.
`CC(=O)Nc1ccc(-c2cc(NCCCN3CCCCC3)c3ccccc3n2)cc1F` [Compound I232]: the IC50 lay within 801 to 5000 nM.
The same measure, in the same setting: next, `COc1ccc(CCNc2cc(-c3ccc(OC)cc3)nc3ccccc23)cc1` [Compound G85, [2-(4-methoxyphenyl)(4-quinolyl)][2-(4-methoxyphenyl)ethyl]amine]: 801 to 5000 nM.
Consider `COc1ccc(-c2cc(NCc3ccccc3OC)c3ccccc3n2)cc1` [Compound G77, [2-(4-methoxyphenyl)(4-quinolyl)][(2-methoxyphenyl)methyl]amine], for which the IC50 was in the range of 801 to 5000 nM.
Still for that read-out and setting: next, `NC(=O)c1ccc(-c2cc(NCCCN3CCCCC3)c3ccccc3n2)c(F)c1` [Compound I252]: 200 to 800 nM.
Same read-out and setting: next, `CC(=O)Nc1ccccc1-c1cc(NCCCN2CCCCC2)c2ccccc2n1` [Compound I116]: greater than 5000 nM; `c1c[nH]c(-c2cc(NCCCC3CCCNC3)c3ccccc3n2)c1` (stereo not drawn) [Compound I175, (3-piperidylpropyl)(2-pyrrol-2-yl(4-quinolyl))amine]: 801 to 5000 nM; `COc1ccc(-c2cc(NCCCN3CCCCC3)c3cc(OC(F)(F)F)ccc3n2)cc1` [Compound G31, [2-(4-Methoxy-phenyl)-6-trifluoromethoxy-quinolin-4-yl]-(3-piperidin-1-yl-propyl)-amine]: greater than 5000 nM.
As for “{2-[2,4-bis(trifluoromethyl)phenyl](4-quinolyl)}(3-piperidylpropyl)amine [Compound I168]”, the IC50 fell in the range of 200 to 800 nM.
On the same count and under the same terms, next, `c1csc(-c2cc(NCCCC3CCCNC3)c3ccccc3n2)c1` (stereo not drawn) [Compound I144, (3-piperidylpropyl)(2-(2-thienyl)(4-quinolyl))amine]: 801 to 5000 nM; `O=S(=O)(c1ccccc1-c1cc(NCCCN2CCCCC2)c2ccccc2n1)N1CCOCC1` [Compound I233]: greater than 5000 nM.
Still for that read-out and setting: next, `FC(F)(F)c1ccc(C(F)(F)F)c(-c2cc(Nc3cccc(CC4CCN(Cc5ccccc5)CC4)c3)c3ccccc3n2)c1` [Compound I40, {2-[2,5-bis(trifluoromethyl)phenyl](4-quinolyl)}(3-{[1-benzyl(4-piperidyl)]methyl}phenyl)amine]: greater than 5000 nM.
The same measure, in the same setting: under `COc1ccc(-c2cc(Nc3cccc(CN4CCCC4)c3)c3c(n2)CCCC3)cc1` [Compound I209, [2-(4-methoxyphenyl)(4-5,6,7,8-tetrahydroquinolyl)][3-(pyrrolidinylmethyl)phenyl]amine] stands 801 to 5000 nM; under `COc1ncccc1-c1cc(NCCCN2CCCCC2)c2ccccc2n1` [Compound I154], 801 to 5000 nM; under `CN(C)c1cccc(Nc2cc(-c3cccc(Cl)c3)nc3ccccc23)c1` [Compound I14, (3-{[2-(3-chlorophenyl)(4-quinolyl)]amino}phenyl)dimethylamine], 801 to 5000 nM.
For `Cc1cccc(-c2cc(NCCCN3CCCCC3)c3ccccc3n2)c1` [Compound G9, (3-Piperidin-1-yl-propyl)-(2-m-tolyl-quinolin-4-yl)-amine], the half-maximal inhibitory concentration (IC50) lay in the range of 801 to 5000 nM.
Still for that read-out and setting: next, `FC(F)(F)c1ccc(-c2cc(NCCCN3CCCCC3)c3ccccc3n2)c(C(F)(F)F)c1` [Compound I149]: 200 to 800 nM.
